Measured values: patent publication US10265276B2, “Pharmaceutical composition for preventing or treating arthritis or inflammatory disease containing 2-methoxy-4-(3-(4-methoxyphenyl)propyl-1-en-1-yl)phenol as active ingredient” (CHUNGBUK NATIONAL UNIVERSITY INDUSTRY-ACADEMIC COOPERATION …, priority 2015, dated 2019)
Read-outs that look alike come from different tables or passages of the source.

Tests used:
STAT3 [1] = experiment: Effect of STAT3 siRNA or STAT3 inhibitor on the effect of MMPP in LPS-treated RAW 264.7 cells; assay type: cell-based, mouse; parameters: dose or concentration left out as unconfirmed
Experimental: (§1) 11. Luciferase activity assay: RAW264.7 cells added to a 24-well plate at a density of 1×10^5 cells/well. After 90% confluence, the cells were transiently infected with STAT3 siRNA (Santa Cruz Biotechnology) or a mutant STAT3 (T456A) plasmid using a mixture of STAT3 siRNA (Santa Cruz Biotechnology) or a mutant STAT3 (T456A) plasmid and WelFect-EX PLUS in OPTI-MEN. The infected cells were treated with LPS (1 μg/mL) and different concentrations of MMPP (1 to 4 μg/mL) for 12 hours. The luciferase activity was measured using a luciferase assay kit (Promega, Madison, Wis., USA).
First, a protective effect of MMPP on the LPS-induced pro-inflammatory response was tested using RAW 264.7 cells infected with STAT3 siRNA.
The RAW 264.7 cells were infected with STAT3 siRNA. After 24 hours, the infected cells were then treated with […] of LPS alone or in combination with MMPP. Thereafter, the NO generation, the iNOS and COX2 expression, and the DNA binding activity of NF-κB were measured.
Next, it was examined whether an effect of a STAT3 inhibitor in RAW 264.7 cells was limited. RAW 264.7 cells were treated with a STAT3 inhibitor […] alone or in combination with MMPP, and the NO generation, the iNOS and COX2 expression, and the DNA binding activity of NF-κB were also measured.

STAT3 [2] = experiment: STAT3-luciferase activity assay in LPS-induced RAW 264.7 cells; assay type: cell-based, mouse; conditions: concentration-dependent manner (0 to 4 mg/mL)
Experimental: 9. Cell infection: RAW 264.7 cells (5×10^4 cells/well) were added to a 24-well plate, and transiently infected with a STAT3-luciferase reporter plasmid and an iNOS-luciferase reporter plasmid using a Lipofectamine PLUS and plasmid mixture in OPTI-MEN.
as §1, with “The infected cells were treated with LPS (1 μg/mL) and different concentrations of MMPP (1 to 4 μg/mL) for 12 hours.” left out
RAW 264.7 cells were transiently infected with a STAT3-luciferase construct, treated with LPS (1 μg/mL) alone or a combination of MMPP and LPS, and then activated for 12 hours. Thereafter, the luciferase activity, the ROS and PGE2 expression, and a level of pro-inflammatory cytokines were determined.

NF-κB = experiment: EMSA and Western blotting of the NF-κB pathway in LPS-treated RAW 264.7 cells; assay type: cell-based, mouse
Experimental: 10. EMSA assay (Electromobility shift assay): RAW 264.7 cells were cultured for 24 hours to perform an EMSA assay. The relative density of a protein band was scanned using MyImage, and qualitatively analyzed using Labworks 4.0 software (UVP, Inc.).
12. Western blotting assay: A whole cell lysate, a cytosolic extract, and a nuclear extract were obtained. SDS-PAGE and Western blotting assays were carried out as disclosed in published Documents 1 and 2. Simply speaking, the cells were seeded in a 6-well plate at a density of 5×10^5 cells/well, and cultured for 24 hours. Thereafter, the cells were treated with MMPP or DMSO for 24 hours. After the treatment, the cells were washed twice with PBS, and then lyzed. Proteins of the lyzed cells were separated on 10 to 15% SDS-PAGE. The proteins were transferred to a PVDF membrane, and the PVDF membrane was blocked at room temperature for 2.5 hours in a TB S/T buffer containing 5% skim milk. The membrane to which the proteins were transferred was analyzed using, as primary antibodies, murine monoclonal antibodies against Cdk2, Cdk4, Cdk6, cyclin B1, cyclin D1, cyclin E1, Bcl-2, Bax, caspase-3, caspase-8, STAT3, phspho-STAT3, (3-actin, and histone hl. Expression of the proteins was visualized using a chemiluminescence reagent (Amersham Pharmacia Biotech, Inc., Buckinghamshire, UK), and measured using a digital chemiluminescence imaging system equipped with a CCD camera (Fusion-FX, Fisher BioTech, Ltd., Wembley, Australia).
RAW 264.7 cells were treated with LPS alone or a combination of LPS and MMPP for 30 minutes, and the DNA binding activities of NF-κB and STAT3 were examined using an electrophoretic mobility shift assay (EMSA). Also, the same amount of the total proteins (20 μg/Lane) was subjected to 10% SDS-PAGE, and STAT3, P-STAT3, p50, p65, IKK, lκB, and p-lκB were detected through Western blotting. A (3-actin protein or histone H was used as the control.

STAT3 [3] = target: T1, STAT3 (Mus musculus, UniProt P42227); experiment: Pull-down assay, MMPP conjugated to Sepharose 6B beads; assay type: binding; conditions: recombinant STAT3 protein and cell lysate containing STAT3 from RAW 264.7 cells
T1 construct: a cell lysate containing a recombinant STAT3 protein or a STAT3 protein; endogenous in cells; host or cells: RAW 264.7
T1 sequence (P42227 whole entry): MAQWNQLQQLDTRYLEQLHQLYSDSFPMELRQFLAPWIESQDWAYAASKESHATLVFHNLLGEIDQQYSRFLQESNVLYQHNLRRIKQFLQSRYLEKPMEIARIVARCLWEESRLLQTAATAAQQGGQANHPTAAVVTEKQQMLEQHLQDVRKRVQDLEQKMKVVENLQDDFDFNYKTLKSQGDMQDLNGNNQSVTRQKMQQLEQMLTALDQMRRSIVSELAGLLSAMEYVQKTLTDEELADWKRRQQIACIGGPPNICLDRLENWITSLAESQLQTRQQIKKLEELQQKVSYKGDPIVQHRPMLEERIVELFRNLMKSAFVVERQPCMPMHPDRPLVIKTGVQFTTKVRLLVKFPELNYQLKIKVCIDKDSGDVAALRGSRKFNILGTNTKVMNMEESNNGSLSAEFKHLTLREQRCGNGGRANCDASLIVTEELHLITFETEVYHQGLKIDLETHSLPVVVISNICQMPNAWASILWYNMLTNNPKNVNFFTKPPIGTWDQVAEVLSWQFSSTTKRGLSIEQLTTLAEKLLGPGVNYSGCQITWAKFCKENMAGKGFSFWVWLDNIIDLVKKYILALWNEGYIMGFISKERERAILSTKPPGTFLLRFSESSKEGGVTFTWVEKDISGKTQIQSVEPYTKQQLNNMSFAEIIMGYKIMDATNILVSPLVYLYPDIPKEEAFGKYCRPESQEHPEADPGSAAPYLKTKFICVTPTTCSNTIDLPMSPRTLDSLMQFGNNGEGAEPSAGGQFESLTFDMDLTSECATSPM
Experimental: As a method for isolating a protein complex, a pull-down assay is an assay for checking a protein-protein interaction. To identify a protein interacting with MMPP, MMPP was bound to […] epoxy-activated Sepharose 6B (Sigma, St Louis, Mo., United States).
To check the interaction between MMPP and STAT3, a pull-down assay was carried out. MMPP was conjugated to epoxy-activated Sepharose 6B. A pull-down assay was performed using an interaction between a cell lysate containing a recombinant STAT3 protein or a STAT3 protein and MMPP conjugated to Sepharose 6B beads. […] Referring to FIG. 2(D), it can also be seen that the binding of MMPP to mutant STAT3 Thr456A was reduced, compared to the STAT3.

RAW 264.7 cells = experiment: Cell viability (MTT assay) in RAW 264.7 cells; assay type: cell-based, mouse; conditions: up to 4 mg/mL
Experimental: As mouse macrophages, RAW 264.7 macrophages were cultured in a DMEM medium supplemented with 10% FBS. […] of the medium was treated with MMPP, and then stabilized for an hour.
An MTT reagent was added at a concentration of 0.5 mg/mL, and the cells were cultured at 37° C. in an incubator. After the medium was completely removed when 70% of the cells formed crystals, […] of DMSO was added to dissolve the crystals. Subsequently, the optical density was measured at 550 nm.
Morphological changes of the cells were observed under a microscope, and the cell viability was determined using an MTT assay.

[4] = LPS-induced, co-treated with MMPP

Compound: COc1ccc(C/C=C/c2ccc(O)c(OC)c2)cc1 [MMPP, 2-methoxy-4-(3-(4-methoxyphenyl)prop-1-en-1-yl)phenol]
- inhibitory effect of MMPP on LPS-induced NO generation, iNOS and COX2 expression, and NF-κB activity (STAT3 [1]): completely limited
- inhibitory effect of MMPP on LPS-induced NO generation, iNOS and COX2 expression, and NF-κB activity (STAT3 [1]; STAT3 knock-down cells (STAT3 siRNA)): limited
- LPS-induced STAT3 luciferase activity (STAT3 [2]): inhibited
- LPS-induced phosphorylation of IKKb and IKKa (NF-κB): inhibited
- DNA binding activity and transcriptional activity of NF-κB (NF-κB; [4]): reduced in a concentration-dependent manner
- IκB degradation (NF-κB; [4]): reduced in a concentration-dependent manner
- nuclear translocation of NF-κB subunits p65 and p50 (NF-κB; [4]): reduced in a concentration-dependent manner
- interaction with STAT3 in pull-down assay (STAT3 [3]): mediated the interaction
- toxicity (RAW 264.7 cells; RAW 264.7 cells): no toxicity
- viability of the LPS-induced RAW 264.7 cells (RAW 264.7 cells): not affected
